{
  "source": "patent US20130023585A1",
  "about": "“Neuraminidase Inhibitors” (TSRL, INC., priority 2010, published 2013)",
  "system": "Hong Kong/2369/2009 (H1N1) H275Y oseltamivir resistant",
  "format": "cell-based, influenza virus",
  "data": [
    {"smiles": "CCC(CC)O[C@@H]1C=C(C(=O)O)C[C@H](NC(=N)N)[C@H]1NC(C)=O", "note": "[GOC, 4-guanidinio oseltamivir carboxylate]", "values": [
      {"measurement": "activity against the Oseltamivir resistant strain", "value": "remains active"},
      {"measurement": "EC50", "setting": "read-out: 50% effective concentration (EC50)", "value": 1700, "unit": "nM"}
    ]}
  ]
}
